Earlier results on two molecules are cited in patent US20240108697A1, “ANTIMICROBIAL COMPOSITIONS” (Matoke Holdings Limited, priority 2020, published 2024).

For data set [1] the following is noted: at 20° C. and 1 atm.
In data set [2] the test system is Human Fibroblast Cell Migration. The conditions noted are these: in the presence of 30 mM glucose.

As to `O=C(CO)[C@@H](O)[C@H](O)[C@H](O)CO` [Fructose], in data set [1], the solubility result is listed as “about 375 g/100 g water”.

As for `O=C[C@H](O)[C@@H](O)[C@H](O)[C@H](O)CO` [Glucose], in data set [1], the solubility is 90 g/100 g water. Also, the “mobilisation of fibroblasts in a cell culture system” value in data set [2] is on record as “poor mobilisations of fibroblasts”.
